Structures can show the parent of a compound that is named as a salt.
tested on: not listed separately; assay: Assessment of in vivo MCHR activity: body weight of rats with a choice of chow and high fat/high sugar diet; set-up: species or system rat; conditions: male Sprague Dawley rats, 30 mg/kg p.o. daily day 0 through day 4, dosed as prodrug (Examples 57, 68, 66)
Experimental: Male SPRAGUE DAWLEY® (CD, Charles River Breeding Laboratory) rats weighing approximately 240 grams were place in individual plastic cages with ALPHADRI® bedding. The room was maintained at 72° F. and 50% humidity, and a 12/12 light dark cycle with lights out at 1600 hours. The rats were conditioned for 5 days prior to the start of the study to having a choice of foods. A normal chow (HARLAN TEKLAD®, 2018) that contains 18% protein, 5% fat and 73% carbohydrate and a high fat high sugar diet (Research Diets (D2327)) that contains 20% protein, 40% fat and 40% carbohydrate where the carbohydrate is entirely sucrose and the fat is soybean and coconut oil. […] Body weight and consumption of both kinds of food as well as water intake were measured daily. Water was available ad lib throughout the study. Food consumption is presented as daily caloric consumption which is the sum of grams of chow multiplied by the Kcal per gram (3.5) plus grams of high fat high sugar multiplied by Kcal per gram (4.59).
Baseline body weight was measured prior to drug treatment on day 0 of the study. Baseline food consumption was the average of the 3 days prior to the first drug treatment. Drug was administered daily p.o. at 2.0 ml/kg at 1500 hours beginning on day 0 and continuing daily through day 4 as a suspension in 0.5% methyl cellulose, 0.1% Tween 80 in water at 3.0, 10 and 30 mg/kg p.o. All data were evaluated using ANOVA and Fishers PLSD statistics.

| Molecule | Weight Reduction versus Vehicle [%] |
| --- | --- |
| COc1cc(N2Cc3cc(-c4ccc(Cl)cc4)sc3C2=O)ccc1OCC(C)(C)O [Example 1, 2-(4-Chlorophenyl)-5-(4-(2-hydroxy-2-methylpropoxy)-3-methoxyphenyl)-4H-thieno[3,2-c]pyrrol-6(5H)-one] | 3.9 |
| COc1cc(N2Cc3cc(-c4ccc(Cl)cn4)sc3C2=O)ccc1OC[C@H](O)CS(C)(=O)=O [Example 31] | 3.2 |
| COc1cc(N2Cc3cc(-c4ncc(Cl)cn4)sc3C2=O)ccc1OCC(C)(C)O [Example 33] | 4.8 |

biological target: T1, mutated (E4Q, A5T) hMCHR1 receptor (Homo sapiens, UniProt Q99705, A5T/E4Q); assay: Radioligand binding assay for assessment of MCHR1 activity; conditions: membranes from stably transfected HEK-293 cells; competition with [Phe13,[125I]Tyr19]-MCH
T1 construct: expressed in transfected cells; host or cells: HEK-293 (stably transfected), membrane preparation
Experimental: Radioligand Binding Assay for Assessment of MCHR1 Activity
Membranes from stably transfected HEK-293 cells expressing a mutated (E4Q, A5T) hMCHR1 receptor were prepared by dounce homogenization and differential centrifugation. Binding experiments were carried out with 0.5-1.0 ug of membrane protein incubated in a total of 0.2 ml in 25 mM HEPES (pH 7.4) with 10 mM MgCl2, 2 mM EGTA, and 0.1% BSA (Binding Buffer) for 90 min. For competition binding assays, reactions were carried out in the presence of with 0.06-0.1 nM [Phe^13, [^125I]Tyr^19]-MCH and increasing concentrations of unlabeled test molecules. Reactions were terminated by rapid vacuum filtration over 96 well-GFC UNIFILTER® plates pre-coated with 0.075 ml binding buffer containing 1% BSA, and washed 3 times with 0.4 ml of Phospho-buffered Saline (pH 7.4) containing 0.01% TX-100. Filters were dried, 0.05 ml microscint 20 was added to each well and radioactivity was subsequently quantified by scintillation counting on a TOPCOUNT® microplate scintillation counter (Packard). Inhibitory constants were determined by nonlinear least squares analysis using a four parameter logistic equation.

T1 sequence (Q99705 whole entry E4Q/A5T): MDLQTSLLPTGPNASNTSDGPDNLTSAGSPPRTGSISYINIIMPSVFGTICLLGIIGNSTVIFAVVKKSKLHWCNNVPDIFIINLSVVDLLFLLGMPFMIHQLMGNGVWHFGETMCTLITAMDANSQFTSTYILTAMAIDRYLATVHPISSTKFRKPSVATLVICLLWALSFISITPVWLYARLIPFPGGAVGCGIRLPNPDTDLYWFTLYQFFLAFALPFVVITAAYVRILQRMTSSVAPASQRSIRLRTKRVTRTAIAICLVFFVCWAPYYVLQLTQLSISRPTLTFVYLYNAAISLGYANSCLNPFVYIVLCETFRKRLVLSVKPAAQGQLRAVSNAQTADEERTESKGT

| Molecule | Ki [nM] |
| --- | --- |
| COc1cc(N2Cc3cc(-c4ccc(Cl)cc4)sc3C2=O)ccc1OC[C@H](O)CS(C)(=O)=O [Example 15] | 0.6 |
| COc1cc(N2Cc3cc(-c4ccc(Cl)cc4)sc3C2=O)ccc1OC[C@H](O)C1CC1 [Example 2] | 2.5 |
| COc1cc(N2Cc3cc(-c4ccc(Cl)cc4)oc3C2=O)ccc1OCC(C)(C)O [Example 54, 2-(4-Chlorophenyl)-5-(4-(2-hydroxy-2-methylpropoxy)-3-methoxyphenyl)-4H-furo[3,2-c]pyrrol-6(5H)-one] | 13.3 |
| COc1cc(N2Cc3cc(-c4ccc(Cl)cc4)sc3C2=O)ccc1O [Example 6] | 30 |
| COc1cc(N2Cc3cc(-c4ccc(Cl)nc4)sc3C2=O)ccc1OCC(C)(C)O [Example 44] | 21.6 |
| COc1cc(N2Cc3cc(-c4ccc(Cl)cc4)sc3C2=O)ccc1OCC(C)(C)O [Example 1, 2-(4-Chlorophenyl)-5-(4-(2-hydroxy-2-methylpropoxy)-3-methoxyphenyl)-4H-thieno[3,2-c]pyrrol-6(5H)-one] | 1.9 |
| COc1cc(N2Cc3cc(-c4ccncc4)sc3C2=O)ccc1OCC(C)(C)O [Example 43] | 1290 |
| COc1cc(N2Cc3cc(-c4ncc(Cl)cn4)sc3C2=O)ccc1OCC(C)(C)OC(=O)CN [Example 68] | 17.6 |
| COc1cc(N2Cc3nc(-c4ccc(Cl)cc4)oc3C2=O)ccc1OCC(C)(C)O [Example 53, 2-(4-Chlorophenyl)-5-(4-(2-hydroxy-2-methylpropoxy)-3-methoxyphenyl)-4H-pyrrolo[3,4-d]oxazol-6(5H)-one] | 248 |
| COc1cc(N2Cc3cc(-c4ncc(Cl)cn4)sc3C2=O)ccc1N1CCC(O)CC1 [Example 39] | 33.6 |
| COc1cc(N2Cc3cc(-c4ccccn4)sc3C2=O)ccc1OCC(C)(C)O [Example 49, 5-(4-(2-Hydroxy-2-methylpropoxy)-3-methoxyphenyl)-2-(pyridin-2-yl)-4H-thieno[2,3-c]pyrrol-6(5H)-one, trifluoroacetic acid salt] | 107 |
| CN(C)[C@@H]1CCN(c2ccc(N3Cc4cc(-c5ccc(Cl)cc5)sc4C3=O)cn2)C1 [Example 21, (R)-2-(4-Chlorophenyl)-5-(6-(3-(dimethylamino)pyrrolidin-1-yl)pyridin-3-yl)-4H-thieno[3,2-c]pyrrol-6(5H)-one] | 0.2 |
| COc1cc(N2Cc3cc(-c4ccc(Cl)cn4)sc3C2=O)ccc1OCC(O)C(F)(F)F (stereo not drawn) [Example 27] | 2.5 |
| 5-(4-(2-Hydroxy-2-methylpropoxy)-3-methoxyphenyl)-2-(6-methoxypyridin-3-yl)-4H-thieno[3,2-c]pyrrol-6(5H)-one, trifluoroacetic acid salt [Example 41] | 800 |
| CN[C@H]1CCN(c2ccc(N3Cc4cc(-c5ccc(Cl)cc5)sc4C3=O)cn2)C1 [Example 10] | 0.3 |
| COc1cc(N2Cc3cc(-c4ccc(Cl)cc4)sc3C2=O)ccc1OCCN1CCCC1 [Example 3] | 0.2 |
| COc1cc(N2Cc3cc(-c4ncc(Cl)cn4)sc3C2=O)ccc1OCC(C)(C)O [Example 33] | 17 |
| COc1cc(N2Cc3nc(-c4ccc(Cl)cc4)sc3C2=O)ccc1OCC(C)(C)O [Example 52, 2-(4-Chlorophenyl)-5-(4-(2-hydroxy-2-methylpropoxy)-3-methoxyphenyl)-4H-pyrrolo[3,4-d]thiazol-6(5H)-one] | 68 |

Reference: patent publication US8344160B2, “Pyrrolone melanin concentrating hormone receptor-1 antagonists” (Bristol-Myers Squibb Company, priority 2008, dated 2013)
